Source: US20140109520A1, “BEVERAGE FILLING METHOD AND APPARATUS” (DAI NIPPON PRINTING CO., LTD., priority 2008, published 2014)
Read-outs that look alike come from different tables or passages of the source.

How the values were obtained:
[1] = tested on: B. subtilis var. niger ATCC9372
Source text: Evaluation method to the measurement was as follows.
Sterilization Effects (Log Reduction)=Log(Number of Adhering Bacteria/Number of Survived Bacteria)
Index Bacteria: B. subtilis var. niger ATCC9372

B. subtilis spore = tested on: B. subtilis spore
Source text: Effects attained by the container sterilization method of the present invention will be compared with effects attained by the conventional sterilization method as in the following Table 2.
(§1) In the column “No” in the above Table 2, A1, A2, A3, B1, B2 denotes bottle sample numbers, in which A1, A2 and A3 correspond to the conventional sterilization method, and B1 and B2 correspond to the third embodiment of the present invention mentioned above.
The column “Log Reduction” represents LRV (Logarithmic Reduction Value) as to B. subtilis spore.

[2] = tested on: bacteria adhering to the inner surfaces of the preforms; conditions: for Number of bacteria adhering on inner surface of preform 10^3: 10^3 bacteria; for Number of bacteria adhering on inner surface of preform 10^4: 10^4 bacteria; for Number of bacteria adhering on inner surface of preform 10^5: 10^5 bacteria
Source text: as §1

[3] = for Remaining hydrogen peroxide: 500 mL PET bottle, 30 μL hydrogen peroxide
[4] = 2 sec from hydrogen peroxide spray to air-rinse
[5] = 5 sec from hydrogen peroxide spray to air-rinse
[6] = bottle sample A1, conventional method, H2O2 mist 50 μL/bottle, H2O2 in air 0.0 mg/L, using amount 170 mL/min
[7] = bottle sample A2, conventional method, H2O2 mist 100 μL/bottle, H2O2 in air 0.0 mg/L, using amount 340 mL/min
[8] = bottle sample B1, third embodiment, H2O2 mist 50 μL/bottle, H2O2 in air 3.3 mg/L, using amount 230 mL/min
[9] = bottle sample A2, conventional method, H2O2 mist 100 μL/bottle, H2O2 in air 0.0 mg/L
[10] = bottle sample A3, conventional method, H2O2 mist 150 μL/bottle, H2O2 in air 0.0 mg/L
[11] = bottle sample B1, third embodiment, H2O2 mist 50 μL/bottle, H2O2 in air 3.3 mg/L
[12] = bottle sample B2, third embodiment, H2O2 mist 50 μL/bottle, H2O2 in air 5 mg/L
[13] = 0.5 sec from hydrogen peroxide spray to air-rinse

In the case of OO [hydrogen peroxide], the “Judgment (log reduction)” value [1, 4] is reported as “∘”, the “Judgment (log reduction)” value [1, 5] is reported as “∘” and the “Judgment Sterilization performance” value (B. subtilis spore; [6]) is reported as “X (LVR being less than 6)”. For the same compound, the Log reduction (B. subtilis spore; [6]) was under 3.4, the “Judgment Sterilization performance” value (B. subtilis spore; [7]) was “◯ (shows LRV being 6)” and the Log reduction (B. subtilis spore; [7]) was 6.0. The Log reduction (B. subtilis spore; bottle sample A3, conventional method, H2O2 mist 150 μL/bottle, H2O2 in air 0.0 mg/L, using amount 510 mL/min) was over 6.0, the “Judgment Sterilization performance” value (B. subtilis spore; [8]) was “◯ (shows LRV being 6)” and the Log reduction (B. subtilis spore; [8]) was 6. The Log reduction (B. subtilis spore; bottle sample B2, third embodiment, H2O2 mist 50 μL/bottle, H2O2 in air 5 mg/L, using amount 280 mL/min) was over 6.0, the “sterilization effect LRV” value (B. subtilis spore; conventional method, hydrogen peroxide of 340 mL/min. to 510 mL/min.) was 6 and the “sterilization effect LRV” value (B. subtilis spore; method of the present invention, hydrogen peroxide of 230 mL/min. to 260 mL/min.) was 6. The “Number of bacteria adhering on inner surface of preform 10^3” value (“Number … of preform 10^3” below) [2, 9] was “◯◯◯”, the “Number of bacteria adhering on inner surface of preform 10^4” value (shortened to “Number … of preform 10^4”) [2, 9] was “◯◯◯” and the “Number of bacteria adhering on inner surface of preform 10^5” value (“Number … of preform 10^5” for short) [2, 9] was “◯◯[…]”. The “Number … of preform 10^3” value [2, 10] was “◯◯◯”, the “Number … of preform 10^4” value [2, 10] was “◯◯◯” and the “Number … of preform 10^5” value [2, 10] was “◯◯◯”. The “Number … of preform 10^3” value [2, 11] was “◯◯◯”, the “Number … of preform 10^4” value [2, 11] was “◯◯◯” and the “Number … of preform 10^5” value [2, 11] was “◯◯[…]”. For the same compound, the “Number … of preform 10^3” value [2, 12] was “◯◯◯”, the “Number … of preform 10^4” value [2, 12] was “◯◯◯” and the “Number … of preform 10^5” value [2, 12] was “◯◯◯”. The “Judgment (remaining hydrogen peroxide)” value [3, 13] was “∘”, the Remaining hydrogen peroxide [3, 13] was 0.3 ppm and the “Judgment (remaining hydrogen peroxide)” value [3, 4] was “∘”. The Remaining hydrogen peroxide [3, 5] was 0.9 ppm, the “density of the hydrogen peroxide adhering to the surface of the bottle” value (bottle temperature 65° C.) was about 80 weight % and the “density of the hydrogen peroxide adhering to the surface of the bottle” value (bottle temperature 80° C.) was about 90 weight %.
